Where “and” joins values, the source holds several entries; their conditions need not be identical. Equal entries are not always repeated. Where two headings read alike, the source gives them in different places.
What was measured:
[1] = biological target: T1, hP2Y14R (Homo sapiens, UniProt Q15391); set-up: method as in PMID 28527783, PMID 23235874; settings: previous members of the series; ref [29],[43]; cited from earlier work
T1 construct: expressed in transfected cells
T1 sequence (Q15391 1-338): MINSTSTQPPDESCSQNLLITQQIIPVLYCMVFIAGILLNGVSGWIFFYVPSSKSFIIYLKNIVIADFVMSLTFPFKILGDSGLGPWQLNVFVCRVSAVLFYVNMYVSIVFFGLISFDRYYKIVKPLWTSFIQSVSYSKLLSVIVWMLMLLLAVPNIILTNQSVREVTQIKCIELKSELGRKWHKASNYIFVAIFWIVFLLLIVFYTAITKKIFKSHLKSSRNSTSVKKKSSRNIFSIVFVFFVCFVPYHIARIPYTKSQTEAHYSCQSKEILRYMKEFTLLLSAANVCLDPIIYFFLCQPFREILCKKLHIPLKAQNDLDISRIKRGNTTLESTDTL

[2] = biological target: T2, hP2Y6R (Homo sapiens, UniProt Q15077); test: UDP (100 nM)-induced Ca2+ mobilization in hP2Y6R stably transfected 1321N1 astrocytoma cells; assay type: cell-based; settings: UDP 100 nM; for IC50: 3–4 independent triplicate determinations
T2 construct: expressed in transfected cells
Experimental: To screen for P2Y6R antagonist activity, PLC-mediated calcium mobilization assays were carried out using the recombinant human P2Y6R stably expressed in 1321N1 astrocytoma cells (hP2Y6R-1321N1) according to the previously published method. Briefly, the hP2Y6R-1321N1 cells were seeded on 96-well black plates and incubated overnight. The antagonists were pretreated along with the FLIPR dye (Calcium 6 assay kit, Molecular Devices, San Jose, CA, USA) containing 5 mM probenecid for 45 min, prior to agonist addition followed by an immediate intracellular Ca^2+ measurement. […] Here, probenecid was used as an organic anion transporter inhibitor to prevent the efflux of the dye into the extracellular environment. During incubation, the membrane permeable dye enters the cytoplasm and cleaves the acetoxymethyl protection to enable Ca^2+ binding. When the P2Y6R was activated by UDP, the increased calcium concentration was directly measured by intracellular changes in the fluorescence intensity with a Fluorescent Imaging Plate Reader (FLIPR^TETRA, Molecular Devices, San Jose, CA, USA).

[3] = biological target: T3, α2A (Homo sapiens, UniProt P08913); test: PDSP binding assay, α2A; settings: PDSP, mean, n = 2; read-out: Ki, α2A
T3 construct: NIMH Psychoactive Drug Screening Program (PDSP)
T3 sequence (P08913 1-465): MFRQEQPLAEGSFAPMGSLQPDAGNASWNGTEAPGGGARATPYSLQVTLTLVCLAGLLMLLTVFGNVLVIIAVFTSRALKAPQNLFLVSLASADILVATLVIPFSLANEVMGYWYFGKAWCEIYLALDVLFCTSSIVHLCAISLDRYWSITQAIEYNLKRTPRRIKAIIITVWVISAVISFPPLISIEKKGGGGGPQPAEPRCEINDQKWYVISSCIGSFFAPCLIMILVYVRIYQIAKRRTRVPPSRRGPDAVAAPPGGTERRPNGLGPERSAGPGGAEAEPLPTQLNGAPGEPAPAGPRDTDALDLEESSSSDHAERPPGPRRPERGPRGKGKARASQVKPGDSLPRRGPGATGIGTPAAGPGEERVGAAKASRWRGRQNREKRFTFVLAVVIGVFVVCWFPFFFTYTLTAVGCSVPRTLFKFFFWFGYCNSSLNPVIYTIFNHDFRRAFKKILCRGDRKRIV
Description: (§1) Table S2. Off-target screening (to replace table later). We thank Dr. Bryan L. Roth (Univ. North Carolina at Chapel Hill) and National Institute of Mental Health's Psychoactive Drug Screening Program (Contract # HHSN-271-2008-00025-C) for screening data. Reference: Besnard et al.
(§2) Procedures: https://pdsp.unc.edu/pdspweb/content/UNC-CH%20Protocol%20Book.pdf […]
(§3) nucleosides were found at the following sites (human unless noted): 5HT1A, 5HT1B, 5HT1D, […]
(§4) β3, BZP rat brain site, D1, D2, D3, D4, D5, GABAA, H1, H2, H3, H4, M1, M2, M5, δ-opioid receptor (DOR), κ-opioid receptor (KOR), μ-opioid receptor (MOR), σ1, σ2, DAT, NET, SERT. Ki values […]
(§5) Compound # PDSP # Receptor LogKi Ki (nM)

[4] = biological target: T4, α2B (Homo sapiens, UniProt P18089); test: PDSP binding assay, α2B; settings: mean, n = 2
T4 construct: NIMH Psychoactive Drug Screening Program (PDSP)
T4 sequence (P18089 1-450): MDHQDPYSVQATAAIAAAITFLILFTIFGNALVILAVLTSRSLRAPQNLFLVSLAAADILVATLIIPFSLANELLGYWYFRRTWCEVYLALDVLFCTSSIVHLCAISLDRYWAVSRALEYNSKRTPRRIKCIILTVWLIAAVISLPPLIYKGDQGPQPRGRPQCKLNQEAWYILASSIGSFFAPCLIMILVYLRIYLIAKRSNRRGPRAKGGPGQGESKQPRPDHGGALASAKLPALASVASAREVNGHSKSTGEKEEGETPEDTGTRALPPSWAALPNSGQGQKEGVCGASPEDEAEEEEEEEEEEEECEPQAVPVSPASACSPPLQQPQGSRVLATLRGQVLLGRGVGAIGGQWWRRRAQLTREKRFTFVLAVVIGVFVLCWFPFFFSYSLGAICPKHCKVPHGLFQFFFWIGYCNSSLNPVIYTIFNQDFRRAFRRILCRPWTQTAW
Description: as §1, §2, §3, §4, §5

[5] = biological target: T5, 5-HT1D (Homo sapiens, UniProt P28221); test: PDSP binding assay, 5-HT1D; settings: PDSP, mean, n = 2; read-out: Ki, 5-HT1D
T5 construct: NIMH Psychoactive Drug Screening Program (PDSP)
Description: as §1, §2, §3, §4, §5

[6] = test system: HeLa cells; test: MTT cell viability assay, HeLa cells; assay type: cell-based, human; settings: 12 h, MTT
Experimental: (§6) The 1321N1 astrocytoma (hP2Y6R-overexpressing) and HeLa (non-transfected) cell lines were cultured in Dulbecco’s modified Eagle’s medium (DMEM, HyClone, Logan, UT, USA) supplemented with 5% heat-inactivated fetal bovine serum (FBS, HyClone, UT, USA), 100 U/mL penicillin, and 100 µg/mL streptomycin in 5% CO2 at 37 °C. The cell viability was determined using an MTT kit (Sigma, St. Louis, MO, USA) according to the manufacturer’s instructions. Briefly, 1 × 10^4 cells were seeded in triplicate in 96-well plates. The hP2Y6R-astrocytoma and HeLa cells were treated with a P2Y6R agonist and antagonists at a range of concentrations and incubated for 12 h. The cell viability was measured at 490 nm using a SpectraMax-M5 Spectrometer (Molecular Devices, San Jose, CA, USA).

[7] = test system: hP2Y6R-1321N1 human astrocytoma cells; test: MTT cell viability assay, hP2Y6R-1321N1 astrocytoma cells; assay type: cell-based; settings: P2Y6R-astrocytoma, 12 h, MTT
Experimental: as §6

[8] = test system: other P2YRs; settings: at high µM concentrations; ref [29],[43]; cited from earlier work
[9] = biological target: T6, D5 (Homo sapiens, UniProt P21918); test: PDSP binding assay, D5; settings: PDSP, mean, n = 2; read-out: Ki, D5
T6 construct: NIMH Psychoactive Drug Screening Program (PDSP)
Description: as §1, §2, §3, §4, §5

[10] = read-out: IC50, hP2Y6R (Mean ± SEM)

T2 sequence (Q15077 whole entry): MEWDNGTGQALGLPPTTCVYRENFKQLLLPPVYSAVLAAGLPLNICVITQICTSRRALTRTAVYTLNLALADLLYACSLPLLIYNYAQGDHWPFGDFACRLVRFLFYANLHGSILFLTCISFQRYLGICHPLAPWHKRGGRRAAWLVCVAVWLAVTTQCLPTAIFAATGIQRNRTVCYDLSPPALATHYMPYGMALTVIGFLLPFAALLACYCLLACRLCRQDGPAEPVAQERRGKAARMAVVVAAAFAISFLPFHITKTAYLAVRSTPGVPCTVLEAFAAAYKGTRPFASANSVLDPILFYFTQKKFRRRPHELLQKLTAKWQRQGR
T5 sequence (P28221 whole entry): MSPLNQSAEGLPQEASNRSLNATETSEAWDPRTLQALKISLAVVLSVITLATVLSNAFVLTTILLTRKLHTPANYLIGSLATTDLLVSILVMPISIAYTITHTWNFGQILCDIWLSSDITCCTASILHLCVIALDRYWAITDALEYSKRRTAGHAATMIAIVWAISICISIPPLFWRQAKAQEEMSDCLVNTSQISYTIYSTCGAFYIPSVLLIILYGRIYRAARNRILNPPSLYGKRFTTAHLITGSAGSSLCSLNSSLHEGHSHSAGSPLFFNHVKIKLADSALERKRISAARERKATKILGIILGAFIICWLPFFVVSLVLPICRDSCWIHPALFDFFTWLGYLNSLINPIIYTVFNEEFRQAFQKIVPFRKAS
T6 sequence (P21918 whole entry): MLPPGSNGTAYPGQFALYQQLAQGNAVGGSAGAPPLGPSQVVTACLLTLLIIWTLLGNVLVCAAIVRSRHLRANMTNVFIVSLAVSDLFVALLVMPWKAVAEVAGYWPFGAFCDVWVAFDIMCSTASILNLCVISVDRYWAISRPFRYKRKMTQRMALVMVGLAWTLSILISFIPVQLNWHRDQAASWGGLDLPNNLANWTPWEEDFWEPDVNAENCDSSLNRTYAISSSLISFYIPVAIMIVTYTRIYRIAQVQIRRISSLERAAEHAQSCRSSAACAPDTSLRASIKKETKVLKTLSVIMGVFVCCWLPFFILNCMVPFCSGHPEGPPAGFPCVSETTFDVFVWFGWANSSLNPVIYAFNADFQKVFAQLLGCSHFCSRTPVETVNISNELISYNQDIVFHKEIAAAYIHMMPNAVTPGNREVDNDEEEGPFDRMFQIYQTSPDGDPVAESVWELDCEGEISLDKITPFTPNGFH

Compound: O=[N+]([O-])C1=Cc2cccc(Cl)c2OC1C(F)(F)F (centres unmarked) [Compound 8]
- hP2Y14R binding [1]: inactive

Compound: O=C(O)CCOCCOCCOCCOCC#Cc1cccc2c1OC(C(F)(F)F)C([N+](=O)[O-])=C2 (centres unmarked) [Compound 41]
- IC50 [2, 10]: > 50 µM

Compound: O=[N+]([O-])C1=Cc2cccc(C#CCCCCCCCCBr)c2OC1C(F)(F)F (centres unmarked) [Compound 36, 8-(10-Bromodec-1-yn-1-yl)-3-nitro-2-(trifluoromethyl)-2H-chromene]
- IC50 [2, 10]: 4.79 ± 1.45 µM

Compound: CC(C)(C)OC(=O)NCCCCCC#Cc1ccc2c(c1)C=C([N+](=O)[O-])C(C(F)(F)F)O2 (centres unmarked) [Compound 26]
- IC50 [2, 10]: 1.19 ± 0.25 µM
- Ki [3]: 0.75 µM
- Ki [4]: 1.7 µM
- Ki [5]: 4.8 µM

Compound: NCCC#Cc1ccc2c(c1)C=C([N+](=O)[O-])C(C(F)(F)F)O2 (centres unmarked) [Compound 21]
- IC50 [2, 10]: 22.6 ± 9.3 µM

Compound: CC(C)(C)OC(=O)NCCCCCCCCC#Cc1cccc2c1OC(C(F)(F)F)C([N+](=O)[O-])=C2 (centres unmarked) [Compound 39]
- IC50 [2, 10]: 23.8 ± 6.8 µM

Compound: NCCCCCCCCC#Cc1cccc2c1OC(C(F)(F)F)C([N+](=O)[O-])=C2 (centres unmarked) [Compound 40]
- IC50 [2, 10]: 20 to 30 µM and 34.8 µM

Compound: O=[N+]([O-])C1=Cc2cc(C#Cc3ccc(CO)cc3)ccc2OC1C(F)(F)F (centres unmarked) [Compound 16]
- hP2Y14R binding [1]: inactive

Compound: NCCCCC#Cc1ccc2c(c1)C=C([N+](=O)[O-])C(C(F)(F)F)O2 (centres unmarked) [Compound 25]
- IC50 [2, 10]: 5.39 ± 1.49 µM

Compound: O=[N+]([O-])C1=Cc2cc(F)ccc2OC1C(F)(F)F (centres unmarked) [MRS4830, 6-fluoro-3-nitro-2-(trifluoromethyl)-2H-chromene]
- % survival ([6]; 0.1 µM): 94%
- % survival ([6]; 0.5 µM): 91%
- % survival ([6]; 1 µM): 93%
- % survival ([6]; 5 µM): 87%
- % survival ([6]; 10 µM): 83%
- % survival ([7]; 0.1 µM): 100%
- % survival ([7]; 0.5 µM): 102%
- % survival ([7]; 1 µM): 101%
- % survival ([7]; 5 µM): 96%
- % survival ([7]; 10 µM): 89%

Compound: CC(C)(C)OC(=O)NCCCCCCCCC#Cc1ccc2c(c1)C=C([N+](=O)[O-])C(C(F)(F)F)O2 (centres unmarked) [Compound 33]
- IC50 [2, 10]: 45.4 ± 17.7 µM

Compound: NCCCCCC#Cc1ccc2c(c1)C=C([N+](=O)[O-])C(C(F)(F)F)O2 (centres unmarked) [Compound 27]
- IC50 [2, 10]: 12.4 ± 1.3 µM

Compound: O=[N+]([O-])C1=Cc2cc(C#Cc3ccc(O)cc3)ccc2OC1C(F)(F)F (centres unmarked) [Compound 15]
- hP2Y14R binding [1]: inactive

Compound: O=C(O)CCOCCOCCOCCOCC#Cc1ccc2c(c1)C=C([N+](=O)[O-])C(C(F)(F)F)O2 (centres unmarked) [Compound 35]
- IC50 [2, 10]: 63.3 ± 30 µM

Compound: NCCCCCCC#Cc1ccc2c(c1)C=C([N+](=O)[O-])C(C(F)(F)F)O2 (centres unmarked) [Compound 29]
- IC50 [2, 10]: 20 ± 5.1 µM

Compound: CC(C)(C)OC(=O)NCCCCCCC#Cc1ccc2c(c1)C=C([N+](=O)[O-])C(C(F)(F)F)O2 (centres unmarked) [Compound 28]
- IC50 [2, 10]: 10.5 ± 6.5 µM

Compound: CC(C)(C)OC(=O)NCCCC#Cc1ccc2c(c1)C=C([N+](=O)[O-])C(C(F)(F)F)O2 (centres unmarked) [Compound 22]
- IC50 [2, 10]: 1.87 ± 0.11 µM

Compound: O=[N+]([O-])C1=Cc2ccccc2OC1C(F)(F)F (centres unmarked) [Compound 2a, reference compound]
- IC50 [2, 10]: 2.91 ± 1.21 µM
- hP2Y14R binding [1]: inactive
- inhibition at most other P2YRs [8]: minor

Compound: CC(C)(C)OC(=O)NCCC#Cc1ccc2c(c1)C=C([N+](=O)[O-])C(C(F)(F)F)O2 (centres unmarked) [Compound 20]
- IC50 [2, 10]: 0.587 ± 0.087 µM
- Ki [3]: 1.6 µM
- Ki [9]: 4.4 µM

Compound: O=[N+]([O-])C1=Cc2cc(C#CCCCCCCCCBr)ccc2OC1C(F)(F)F (centres unmarked) [Compound 19]
- IC50 [2, 10]: 14 ± 4.7 µM

Compound: NCCCCCCCC#Cc1ccc2c(c1)C=C([N+](=O)[O-])C(C(F)(F)F)O2 (centres unmarked) [Compound 32]
- IC50 [2, 10]: 6.37 ± 1.82 µM

Compound: NCCCCCCCC#Cc1cccc2c1OC(C(F)(F)F)C([N+](=O)[O-])=C2 (centres unmarked) [Compound 38]
- IC50 [2, 10]: 13 ± 3.9 µM

Compound: CC(C)(C)n1nc(-c2nc3cc(Cl)ccc3[nH]2)cc1-c1ccco1 [Compound 4, reference compound]
- inhibition at 100 µM ([2]; 1321-N1, at 100 µM): 18.9 ± 8.5%
- IC50 ([2]; IC50, hP2Y6R (Mean ± SEM)): > 100 µM

Compound: NCCCC#Cc1ccc2c(c1)C=C([N+](=O)[O-])C(C(F)(F)F)O2 (centres unmarked) [Compound 23]
- IC50 [2, 10]: 9.98 ± 1.37 µM

Compound: O=[N+]([O-])C1=Cc2ccc(Cl)cc2OC1C(F)(F)F (centres unmarked) [Compound 7]
- hP2Y14R binding [1]: inactive

Compound: NCCCCCCCCC#Cc1ccc2c(c1)C=C([N+](=O)[O-])C(C(F)(F)F)O2 (centres unmarked) [Compound 34]
- IC50 [2, 10]: 20 ± 5.2 µM

Compound: CC[Si](C#Cc1cccc2c1OC(C(F)(F)F)C([N+](=O)[O-])=C2)(CC)CC (centres unmarked) [Compound 14]
- inhibition at most other P2YRs [8]: minor

From article PMC11352859, “Functionalized Congeners of 2H-Chromene P2Y6 Receptor Antagonists” (Cells, 2024)
